What was measured:
Conditions in all cases: compound at 10 μM
Mouse urotensin (mUR2) = biological target: T1, Mouse urotensin (mUR2) (Mus musculus, UniProt Q8VIH9); test: Radioligand binding, mouse urotensin mUR2 membranes, FlashPlate, [125I]-Urotensin II
T1 construct: purchased Perkin Elmer Biosignal
T1 sequence (Q8VIH9 1-385): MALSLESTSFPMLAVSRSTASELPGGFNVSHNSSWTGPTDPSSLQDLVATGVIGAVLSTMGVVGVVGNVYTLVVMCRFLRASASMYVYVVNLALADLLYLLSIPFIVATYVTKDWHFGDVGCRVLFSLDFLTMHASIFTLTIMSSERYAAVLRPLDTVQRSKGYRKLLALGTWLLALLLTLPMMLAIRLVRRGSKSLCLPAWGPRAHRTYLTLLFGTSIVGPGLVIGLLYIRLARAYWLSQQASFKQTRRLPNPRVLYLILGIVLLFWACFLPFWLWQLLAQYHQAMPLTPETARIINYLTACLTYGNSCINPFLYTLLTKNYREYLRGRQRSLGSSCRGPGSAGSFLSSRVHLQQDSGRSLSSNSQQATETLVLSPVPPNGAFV
Procedure, shortened: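 Cloned mouse urotensin (mUR2) receptor membranes from Perkin Elmer Biosignal were immobilized in FlashPlate microplates using a proprietary coating. Each well got 19.5 μl buffer, then 0.5 μl of DMSO, reference ligand, or compound. Adding 5 μl of [125I]-Urotensin II, diluted to 5× final concentration in binding buffer, started binding. Plates were sealed with TopSeal-A and incubated 1 hour at room temperature in the dark. Wells were counted for 30 seconds each on a TopCount after a 60-second delay, and percentage inhibition was calculated.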

[1] = biological target: T2, Human neuropeptide Y (NPY-Y1) (Homo sapiens, UniProt P25929); test: Radioligand binding, human neuropeptide Y NPY-Y1 membranes, FlashPlate, [125I]-PYY
T2 construct: purchased Perkin Elmer Biosignal
T2 sequence (P25929 1-384): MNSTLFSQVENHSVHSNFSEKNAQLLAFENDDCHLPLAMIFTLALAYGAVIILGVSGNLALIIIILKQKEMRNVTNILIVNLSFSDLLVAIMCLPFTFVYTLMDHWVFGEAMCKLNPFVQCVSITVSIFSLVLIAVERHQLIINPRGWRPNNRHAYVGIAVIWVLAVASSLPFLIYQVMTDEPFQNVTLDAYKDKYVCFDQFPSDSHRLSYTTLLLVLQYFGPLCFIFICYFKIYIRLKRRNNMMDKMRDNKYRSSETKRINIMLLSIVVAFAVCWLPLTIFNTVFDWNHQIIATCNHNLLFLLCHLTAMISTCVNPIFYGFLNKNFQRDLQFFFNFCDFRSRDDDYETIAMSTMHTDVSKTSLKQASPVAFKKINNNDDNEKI
Procedure, shortened: (§1)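 Cloned human receptor membranes were coated onto FlashPlate wells and incubated with radioligand and compound (added from a 0.5 mM DMSO daughter plate) for 1 hour at room temperature in the dark. Scintillation counting gave percent inhibition, with DMSO defining total and reference ligand defining non-specific binding.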

Human neurokinin (NK1) = biological target: T3, Human neurokinin (NK1) (Homo sapiens, UniProt P25103); test: Radioligand binding, human neurokinin NK1 membranes, filtration, [125I]-Substance P
T3 construct: purchased Perkin Elmer Biosignal
Procedure, shortened: (§2)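 Percent inhibition of radioligand binding measured on recombinant human membranes: NK1 with [125I]-Substance P, KOP with [3H]-Diprenorphine. Incubation 1 h at room temperature, then harvest onto 0.3% PEI-soaked filters, cold Tris-HCl pH 7.4 washes and scintillation counting; non-specific binding from reference ligand wells.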

Human Melanocortin (MC3) = biological target: T4, Human Melanocortin (MC3) (Homo sapiens, UniProt P41968); test: Radioligand binding, human melanocortin MC3 membranes, FlashPlate, [125I]-NDP-αMSH
T4 construct: purchased Perkin Elmer Biosignal
Procedure, shortened: as §1

Human κ-Opioid (KOP) = biological target: T5, Human κ-Opioid (KOP) (Homo sapiens, UniProt P41145); test: Radioligand binding, human κ-opioid (KOP) membranes, filtration, [3H]-Diprenorphine
T5 construct: purchased Perkin Elmer Biosignal
Procedure, shortened: as §2

Human Melanocortin (MC4) = biological target: T6, Human Melanocortin (MC4) (Homo sapiens, UniProt P32245); test: Radioligand binding, human melanocortin MC4 membranes, FlashPlate, [125I]-NDP-αMSH
T6 construct: purchased Perkin Elmer Biosignal
Procedure, shortened: as §1

Human μ-opioid (MOP) = biological target: T7, Human μ-opioid (MOP) (Homo sapiens, UniProt P35372); test: Radioligand binding, human μ-opioid (MOP) membranes, FlashPlate, [3H]-Naloxone
T7 construct: purchased Perkin Elmer Biosignal
Procedure, shortened: as §1

Human opioid (ORL1) = biological target: T8, Human opioid (ORL1) (Homo sapiens, UniProt P41146); test: Radioligand binding, human opioid ORL1 membranes, FlashPlate, [125I]-Nociceptin
T8 construct: purchased Perkin Elmer Biosignal
Procedure, shortened: as §1

Human δ-opioid (DOP) = biological target: T9, Human δ-opioid (DOP) (Homo sapiens, UniProt P41143); test: Radioligand binding, human δ-opioid (DOP) membranes, FlashPlate, [3H]-Bremazocine
T9 construct: purchased Perkin Elmer Biosignal
Procedure, shortened: as §1

[2] = biological target: T10, Human melanin-concentrating hormone (MCH1) (Homo sapiens, UniProt Q99705); test: Radioligand binding, human melanin-concentrating hormone MCH1 membranes, FlashPlate, [125I]-S36057
T10 construct: purchased Perkin Elmer Biosignal
Procedure, shortened: as §1

Human melanocortin (MC5) = biological target: T11, Human melanocortin (MC5) (Homo sapiens, UniProt P33032); test: Radioligand binding, human melanocortin MC5 membranes, FlashPlate, [125I]-NDP-αMSH
T11 construct: purchased Perkin Elmer Biosignal
Procedure, shortened: as §1

T11 sequence (P33032 whole entry): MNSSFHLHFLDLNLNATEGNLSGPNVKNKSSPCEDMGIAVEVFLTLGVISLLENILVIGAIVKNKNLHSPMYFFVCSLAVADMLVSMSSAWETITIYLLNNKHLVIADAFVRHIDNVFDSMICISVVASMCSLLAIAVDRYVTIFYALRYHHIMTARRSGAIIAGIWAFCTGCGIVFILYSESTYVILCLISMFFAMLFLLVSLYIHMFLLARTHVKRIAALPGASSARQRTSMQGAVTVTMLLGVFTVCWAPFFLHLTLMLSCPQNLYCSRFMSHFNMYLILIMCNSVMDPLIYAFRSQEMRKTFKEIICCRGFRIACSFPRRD
T8 sequence (P41146 whole entry): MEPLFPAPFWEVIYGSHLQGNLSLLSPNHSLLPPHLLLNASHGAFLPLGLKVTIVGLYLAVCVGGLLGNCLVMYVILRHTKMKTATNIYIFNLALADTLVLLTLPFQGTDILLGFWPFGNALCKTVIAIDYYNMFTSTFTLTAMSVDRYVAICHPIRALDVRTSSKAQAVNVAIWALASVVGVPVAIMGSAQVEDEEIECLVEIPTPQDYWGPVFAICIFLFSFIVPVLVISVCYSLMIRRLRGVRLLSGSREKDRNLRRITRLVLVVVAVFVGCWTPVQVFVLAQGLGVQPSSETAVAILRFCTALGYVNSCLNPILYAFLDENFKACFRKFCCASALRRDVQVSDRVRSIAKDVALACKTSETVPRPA
T4 sequence (P41968 whole entry): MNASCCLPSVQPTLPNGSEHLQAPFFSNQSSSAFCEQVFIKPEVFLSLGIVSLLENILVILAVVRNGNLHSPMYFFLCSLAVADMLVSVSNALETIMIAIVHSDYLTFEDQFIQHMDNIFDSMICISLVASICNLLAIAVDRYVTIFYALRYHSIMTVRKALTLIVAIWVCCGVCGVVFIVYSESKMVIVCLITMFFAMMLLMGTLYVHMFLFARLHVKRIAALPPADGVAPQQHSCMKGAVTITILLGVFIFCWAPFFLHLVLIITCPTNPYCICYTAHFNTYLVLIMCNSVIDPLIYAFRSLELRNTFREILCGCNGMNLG
T3 sequence (P25103 whole entry): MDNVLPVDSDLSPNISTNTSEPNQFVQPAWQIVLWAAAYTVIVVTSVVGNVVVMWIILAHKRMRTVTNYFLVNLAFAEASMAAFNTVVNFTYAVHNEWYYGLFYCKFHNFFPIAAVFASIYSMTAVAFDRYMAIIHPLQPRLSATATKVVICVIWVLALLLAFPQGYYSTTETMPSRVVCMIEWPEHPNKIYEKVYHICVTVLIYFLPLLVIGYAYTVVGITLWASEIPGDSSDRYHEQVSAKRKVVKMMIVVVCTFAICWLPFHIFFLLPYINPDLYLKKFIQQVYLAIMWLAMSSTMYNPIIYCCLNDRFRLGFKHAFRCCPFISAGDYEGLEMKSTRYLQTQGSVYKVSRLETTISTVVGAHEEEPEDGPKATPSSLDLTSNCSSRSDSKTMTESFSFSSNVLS
T5 sequence (P41145 whole entry): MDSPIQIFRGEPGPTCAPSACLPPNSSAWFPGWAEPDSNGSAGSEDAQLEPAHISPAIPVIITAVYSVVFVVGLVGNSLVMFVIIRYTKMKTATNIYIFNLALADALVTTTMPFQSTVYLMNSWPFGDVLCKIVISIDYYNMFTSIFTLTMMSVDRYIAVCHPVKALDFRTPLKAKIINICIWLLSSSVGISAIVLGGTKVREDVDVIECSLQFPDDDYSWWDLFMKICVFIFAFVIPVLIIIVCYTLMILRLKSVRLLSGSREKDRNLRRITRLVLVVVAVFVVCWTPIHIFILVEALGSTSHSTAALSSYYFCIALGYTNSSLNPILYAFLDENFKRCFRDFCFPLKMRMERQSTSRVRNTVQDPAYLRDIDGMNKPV
T9 sequence (P41143 whole entry): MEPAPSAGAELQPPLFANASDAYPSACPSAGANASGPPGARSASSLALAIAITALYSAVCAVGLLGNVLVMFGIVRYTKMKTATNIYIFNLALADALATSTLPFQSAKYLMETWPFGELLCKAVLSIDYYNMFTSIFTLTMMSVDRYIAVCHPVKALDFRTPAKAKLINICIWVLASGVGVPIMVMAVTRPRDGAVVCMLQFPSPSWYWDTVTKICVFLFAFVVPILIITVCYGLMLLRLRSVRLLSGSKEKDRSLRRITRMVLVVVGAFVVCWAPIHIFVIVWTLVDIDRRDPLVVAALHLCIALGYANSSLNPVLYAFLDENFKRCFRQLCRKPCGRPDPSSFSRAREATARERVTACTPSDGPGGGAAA
T10 sequence (Q99705 whole entry): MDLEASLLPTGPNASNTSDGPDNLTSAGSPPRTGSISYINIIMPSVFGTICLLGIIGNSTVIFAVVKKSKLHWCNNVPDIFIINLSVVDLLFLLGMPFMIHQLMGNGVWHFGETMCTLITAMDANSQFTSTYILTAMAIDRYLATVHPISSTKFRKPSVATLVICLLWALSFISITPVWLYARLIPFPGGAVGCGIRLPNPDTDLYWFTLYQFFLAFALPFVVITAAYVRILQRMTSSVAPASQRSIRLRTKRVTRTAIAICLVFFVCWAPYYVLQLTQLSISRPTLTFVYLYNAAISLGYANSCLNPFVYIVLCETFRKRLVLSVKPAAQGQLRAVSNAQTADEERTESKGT
T7 sequence (P35372 whole entry): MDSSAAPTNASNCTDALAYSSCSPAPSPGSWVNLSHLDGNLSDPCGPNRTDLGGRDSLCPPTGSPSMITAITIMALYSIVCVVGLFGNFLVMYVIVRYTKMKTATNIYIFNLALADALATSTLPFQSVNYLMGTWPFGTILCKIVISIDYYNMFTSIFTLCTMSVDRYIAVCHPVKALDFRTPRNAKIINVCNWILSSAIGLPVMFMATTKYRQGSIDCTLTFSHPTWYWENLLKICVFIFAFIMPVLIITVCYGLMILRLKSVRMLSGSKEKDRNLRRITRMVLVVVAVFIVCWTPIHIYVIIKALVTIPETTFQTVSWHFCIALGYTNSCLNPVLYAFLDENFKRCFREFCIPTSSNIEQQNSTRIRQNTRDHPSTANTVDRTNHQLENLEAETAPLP
T6 sequence (P32245 whole entry): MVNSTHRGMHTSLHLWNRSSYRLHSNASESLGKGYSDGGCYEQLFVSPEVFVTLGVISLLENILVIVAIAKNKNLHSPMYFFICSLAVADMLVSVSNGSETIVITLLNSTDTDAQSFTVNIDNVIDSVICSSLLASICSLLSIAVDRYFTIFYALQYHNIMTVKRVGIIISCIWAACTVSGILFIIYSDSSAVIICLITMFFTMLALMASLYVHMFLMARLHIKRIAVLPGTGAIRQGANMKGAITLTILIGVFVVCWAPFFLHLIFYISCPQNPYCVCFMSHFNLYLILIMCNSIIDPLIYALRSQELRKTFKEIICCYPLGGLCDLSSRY

CSC1O[C@H](COCc2ccc(Cl)cc2)[C@@H](O)[C@@H](OCc2ccc(-c3ccccc3)cc2)[C@H]1NC(=O)CN (stereo partly drawn) [compound 288]
A11: inhibition of radioligand binding, mouse urotensin (mUR2) (Mouse urotensin (mUR2); [125I]-Urotensin II): − (“−” indicates less than 50% inhibition at 10 μM) | A9: inhibition of radioligand binding, human neuropeptide Y (NPY-Y1) ([1]; [125I]-PYY): − (“−” indicates less than 50% inhibition at 10 μM) | A8: inhibition of radioligand binding, human neurokinin (NK1) (Human neurokinin (NK1); [125I]-Substance P): + (“+” indicates greater than 50% inhibition at 10 μM) | A3: inhibition of radioligand binding, human melanocortin (MC3) (Human Melanocortin (MC3); [125I]-NDP-αMSH): − (“−” indicates less than 50% inhibition at 10 μM) | A2: inhibition of radioligand binding, human κ-opioid (KOP) (Human κ-Opioid (KOP); [3H]-Diprenorphine): − (“−” indicates less than 50% inhibition at 10 μM) | A4: inhibition of radioligand binding, human melanocortin (MC4) (Human Melanocortin (MC4); [125I]-NDP-αMSH): − (“−” indicates less than 50% inhibition at 10 μM) | A7: inhibition of radioligand binding, human μ-opioid (MOP) (Human μ-opioid (MOP); [3H]-Naloxone): − (“−” indicates less than 50% inhibition at 10 μM) | A10: inhibition of radioligand binding, human opioid (ORL1) (Human opioid (ORL1); [125I]-Nociceptin): − (“−” indicates less than 50% inhibition at 10 μM) | A1: inhibition of radioligand binding, human δ-opioid (DOP) (Human δ-opioid (DOP); [3H]-Bremazocine): − (“−” indicates less than 50% inhibition at 10 μM) | A6: inhibition of radioligand binding, human melanin-concentrating hormone (MCH1) ([2]; [125I]-S36057): − (“−” indicates less than 50% inhibition at 10 μM) | A5: inhibition of radioligand binding, human melanocortin (MC5) (Human melanocortin (MC5); [125I]-NDP-αMSH): − (“−” indicates less than 50% inhibition at 10 μM)

COC[C@H]1OC(OCCNC(=N)N)[C@H](NC(=O)c2ccccc2)[C@@H](OCc2ccc3ccccc3c2)[C@@H]1O (stereo partly drawn) [compound 123]
A11 radioligand binding, percentage inhibition (Mouse urotensin (mUR2); [125I]-Urotensin II): − (“−” indicates less than 50% inhibition at 10 μM) | A9 radioligand binding, percentage inhibition ([1]; [125I]-PYY): − (“−” indicates less than 50% inhibition at 10 μM) | A8 radioligand binding, percentage inhibition (Human neurokinin (NK1); [125I]-Substance P): + (“+” indicates greater than 50% inhibition at 10 μM) | A3 radioligand binding, percentage inhibition (Human Melanocortin (MC3); [125I]-NDP-αMSH): − (“−” indicates less than 50% inhibition at 10 μM) | A2 radioligand binding, percentage inhibition (Human κ-Opioid (KOP); [3H]-Diprenorphine): − (“−” indicates less than 50% inhibition at 10 μM) | A4 radioligand binding, percentage inhibition (Human Melanocortin (MC4); [125I]-NDP-αMSH): − (“−” indicates less than 50% inhibition at 10 μM) | A7 radioligand binding, percentage inhibition (Human μ-opioid (MOP); [3H]-Naloxone): − (“−” indicates less than 50% inhibition at 10 μM) | A10 radioligand binding, percentage inhibition (Human opioid (ORL1); [125I]-Nociceptin): − (“−” indicates less than 50% inhibition at 10 μM) | A1 radioligand binding, percentage inhibition (Human δ-opioid (DOP); [3H]-Bremazocine): − (“−” indicates less than 50% inhibition at 10 μM) | A6 radioligand binding, percentage inhibition ([2]; [125I]-S36057): − (“−” indicates less than 50% inhibition at 10 μM) | A5 radioligand binding, percentage inhibition (Human melanocortin (MC5); [125I]-NDP-αMSH): + (“+” indicates greater than 50% inhibition at 10 μM)

CO[C@H]1[C@H](O)[C@@H](COCc2ccc3ccccc3c2)OC(OCc2ccccc2)[C@@H]1NC(=O)CNC(=N)N (stereo partly drawn) [compound 86]
A11 radioligand binding inhibition (Mouse urotensin (mUR2); mouse urotensin mUR2 membranes): − (“−” indicates less than 50% inhibition at 10 μM) | A9 radioligand binding inhibition ([1]; human NPY-Y1 membranes): − (“−” indicates less than 50% inhibition at 10 μM) | A8 radioligand binding inhibition (Human neurokinin (NK1); human neurokinin NK1 membranes): + (“+” indicates greater than 50% inhibition at 10 μM) | A3 radioligand binding inhibition (Human Melanocortin (MC3); human melanocortin MC3 membranes): + (“+” indicates greater than 50% inhibition at 10 μM) | A2 radioligand binding inhibition (Human κ-Opioid (KOP); human κ-opioid (KOP) membranes): − (“−” indicates less than 50% inhibition at 10 μM) | A4 radioligand binding inhibition (Human Melanocortin (MC4); human melanocortin MC4 membranes): + (“+” indicates greater than 50% inhibition at 10 μM) | A7 radioligand binding inhibition (Human μ-opioid (MOP); human μ-opioid (MOP) membranes): + (“+” indicates greater than 50% inhibition at 10 μM) | A10 radioligand binding inhibition (Human opioid (ORL1); human ORL1 membranes): − (“−” indicates less than 50% inhibition at 10 μM) | A1 radioligand binding inhibition (Human δ-opioid (DOP); human δ-opioid (DOP) membranes): − (“−” indicates less than 50% inhibition at 10 μM) | A6 radioligand binding inhibition ([2]; human MCH1 membranes): − (“−” indicates less than 50% inhibition at 10 μM) | A5 radioligand binding inhibition (Human melanocortin (MC5); human melanocortin MC5 membranes): + (“+” indicates greater than 50% inhibition at 10 μM)
